This note sets out measurements from patent US11192867B2, “Microbiocidal oxadiazole derivatives” (SYNGENTA PARTICIPATIONS AG, priority 2016, dated 2021).

The subject of one experiment is Phakopsora pachyrhizi. Description: Fungicidal activity against Phakopsora pachyrhizi / soybean / leaf disc preventative (Asian soybean rust). The experiment is classed as in vivo. As to conditions: foliar, 200 ppm in the applied formulation, soybean leaf disks, vs untreated control, read-out: disease control. On the procedure:
Leaf disks or leaf segments of various plant species are cut from plants grown in a greenhouse. The cut leaf disks or segments are placed in multiwell plates (24-well format) onto water agar. The leaf disks are sprayed with a test solution before (preventative) or after (curative) inoculation. Compounds to be tested are prepared as DMSO solutions (max. 10 mg/ml) which are diluted to the appropriate concentration with 0.025% Tween20 just before spraying. The inoculated leaf disks or segments are incubated under defined conditions (temperature, relative humidity, light, etc.) according to the respective test system. A single evaluation of disease level is carried out 3 to 14 days after inoculation, depending on the pathosystem. Percent disease control relative to the untreated check leaf disks or segments is then calculated. Soybean leaf disks are placed on water agar in multiwell plates (24-well format) and sprayed with the formulated test compound diluted in water. One day after application leaf discs are inoculated by spraying a spore suspension on the lower leaf surface. After an incubation period in a climate cabinet of 24-36 hours in darkness at 20° C. and 75% rh leaf disc are kept at 20° C. with 12 hours light/12 hours and 75% rh. The activity of a compound is assessed as percent disease control compared to untreated when an appropriate level of disease damage appears in untreated check leaf disks (12 to 14 days after application). The following compounds at 200 ppm in the applied formulation give at least 80% disease control in this test when compared to untreated control leaf disks under the same conditions, which show extensive disease development.

Experiment [1] has as its system Glomerella lagenarium (Colletotrichum lagenarium). Briefly: Fungicidal activity against Glomerella lagenarium (Colletotrichum lagenarium) liquid culture / cucumber / preventative (anthracnose). The experiment is classed as cell-based. As to conditions: Colletotrichum orbiculare, 72 h; 20 ppm in the applied formulation; liquid culture (PDB), growth inhibition measured photometrically 3 to 4 days after application; vs untreated control; read-out: disease control. The protocol: Mycelia fragments or conidia suspensions of a fungus prepared either freshly from liquid cultures of the fungus or from cryogenic storage, are directly mixed into nutrient broth. DMSO solutions of the test compound (max. 10 mg/ml) are diluted with 0.025% Tween20 by a factor of 50 and 10 μl of this solution is pipetted into a microtiter plate (96-well format). The nutrient broth containing the fungal spores/mycelia fragments is then added to give an end concentration of the tested compound. The test plates are incubated in the dark at 24° C. and 96% relative humidity. The inhibition of fungal growth is determined photometrically after 2 to 7 days, depending on the pathosystem, and percent antifungal activity relative to the untreated check is calculated.
Conidia of the fungus from cryogenic storage are directly mixed into nutrient broth (PDB—potato dextrose broth). After placing a (DMSO) solution of test compound into a microtiter plate (96-well format), the nutrient broth containing the fungal spores is added. The test plates are incubated at 24° C. and the inhibition of growth is measured photometrically 3 to 4 days after application.
The following compounds at 20 ppm in the applied formulation give at least 80% disease control in this test when compared to untreated control under the same conditions, which show extensive disease development.

Experiment [2] concerns Puccinia recondita f. sp. Tritici. Briefly: Fungicidal activity against Puccinia recondita f. sp. Tritici / wheat / leaf disc preventative (brown rust). The experiment is classed as in vivo. As to conditions: foliar, 200 ppm in the applied formulation, wheat leaf segments cv. Kanzler, inoculated 1 day after application, vs untreated control, read-out: disease control. On the procedure:
Leaf disks or leaf segments of various plant species are cut from plants grown in a greenhouse. The cut leaf disks or segments are placed in multiwell plates (24-well format) onto water agar. The leaf disks are sprayed with a test solution before (preventative) or after (curative) inoculation. Compounds to be tested are prepared as DMSO solutions (max. 10 mg/ml) which are diluted to the appropriate concentration with 0.025% Tween20 just before spraying. The inoculated leaf disks or segments are incubated under defined conditions (temperature, relative humidity, light, etc.) according to the respective test system. A single evaluation of disease level is carried out 3 to 14 days after inoculation, depending on the pathosystem. Percent disease control relative to the untreated check leaf disks or segments is then calculated. Wheat leaf segments cv. Kanzler were placed on agar in multiwell plates (24-well format) and sprayed with the formulated test compound diluted in water. The leaf disks were inoculated with a spore suspension of the fungus 1 day after application. The inoculated leaf segments were incubated at 19° C. and 75% relative humidity (rh) under a light regime of 12 hours light/12 hours darkness in a climate cabinet and the activity of a compound was assessed as percent disease control compared to untreated when an appropriate level of disease damage appears in untreated check leaf segments (7 to 9 days after application). The following compounds at 200 ppm in the applied formulation give at least 80% disease control in this test when compared to untreated control leaf disks under the same conditions, which show extensive disease development.

Structures are written as SMILES.

With `CC(C=NOCc1ccc(F)cc1)NC(=O)c1ccc(-c2noc(C(F)(F)F)n2)cc1` (stereo not drawn) [Compound 1.52, N-[2-[(4-fluorophenyl)methoxyimino]-1-methyl-ethyl]-4-[5-(trifluoromethyl)-1,2,4-oxadiazol-3-yl]benzamide], the pest or weed control at 200 ppm with Phakopsora pachyrhizi is not below 80%. Also, the inhibition of growth at 20 ppm in experiment [1] was not below 80%.

`CCCON=CC(C)NC(=O)c1ccc(-c2noc(C(F)(F)F)n2)cc1` (stereo not drawn) [Compound 1.27, N-(1-methyl-2-propoxyimino-ethyl)-4-[5-(trifluoromethyl)-1,2,4-oxadiazol-3-yl]benzamide]: the pest or weed control at 200 ppm with Phakopsora pachyrhizi was not below 80%. Further, the inhibition of growth at 20 ppm in experiment [1] was not below 80%.

With `COc1ccccc1CON=CC(C)NC(=O)c1ccc(-c2noc(C(F)(F)F)n2)cc1` (stereo not drawn) [Compound 1.23, N-[2-[(2-methoxyphenyl)methoxyimino]-1-methyl-ethyl]-4-[5-(trifluoromethyl)-1,2,4-oxadiazol-3-yl]benzamide], the pest or weed control at 200 ppm in the experiment on Phakopsora pachyrhizi is not below 80%.

Regarding `CCCCON=CCNC(=O)c1ccc(-c2noc(C(F)(F)F)n2)cc1` [Compound 1.85, N-(2-butoxyiminoethyl)-4-[5-(trifluoromethyl)-1,2,4-oxadiazol-3-yl]benzamide], in the experiment on Phakopsora pachyrhizi, the pest or weed control at 200 ppm was not below 80%. The inhibition of growth at 20 ppm in experiment [1] is not below 80%.

For `COc1ccccc1CON=C(C)CNC(=O)c1ccc(-c2noc(C(F)(F)F)n2)cc1` [Compound 1.112, N-[2-[(2-methoxyphenyl)methoxyimino]propyl]-4-[5-(trifluoromethyl)-1,2,4-oxadiazol-3-yl]benzamide], the inhibition of growth at 20 ppm in experiment [1] was not below 80%.

As to `CC(CNC(=O)c1ccc(-c2noc(C(F)(F)F)n2)cc1)=NOCc1ccc([N+](=O)[O-])cc1` [Compound 1.105, N-[2-[(4-nitrophenyl)methoxyimino]propyl]-4-[5-(trifluoromethyl)-1,2,4-oxadiazol-3-yl]benzamide], in experiment [2], the pest or weed control at 200 ppm was not below 80%.

Regarding `CC(C=NOCC=C(Cl)Cl)NC(=O)c1ccc(-c2noc(C(F)(F)F)n2)cc1` (stereo not drawn) [Compound 1.34, N-[2-(3,3-dichloroallyl-oxyimino)-1-methyl-ethyl]-4-[5-(trifluoromethyl)-1,2,4-oxadiazol-3-yl]benzamide], the pest or weed control at 200 ppm with Phakopsora pachyrhizi was not below 80%. For the same compound, in experiment [1], the inhibition of growth at 20 ppm was not below 80%.

Take `CCCCON=C(C)CNC(=O)c1ccc(-c2noc(C(F)(F)F)n2)cc1` [Compound 1.128, N-(2-butoxyiminopropyl)-4-[5-(trifluoromethyl)-1,2,4-oxadiazol-3-yl]benzamide]: in the experiment with Phakopsora pachyrhizi, the pest or weed control at 200 ppm was not below 80%. The inhibition of growth at 20 ppm in experiment [1] was not below 80%.

As for `CC(C=NOCc1ccccc1)NC(=O)c1ccc(-c2noc(C(F)(F)F)n2)cc1` (stereo not drawn) [Compound 1.47, N-(2-benzyloxyimino-1-methyl-ethyl)-4-[5-(trifluoromethyl)-1,2,4-oxadiazol-3-yl]benzamide], the pest or weed control at 200 ppm with Phakopsora pachyrhizi was not below 80%. For the same compound, the inhibition of growth at 20 ppm in experiment [1] is not below 80%.

Turning to `Cc1ccc(CON=CCNC(=O)c2ccc(-c3noc(C(F)(F)F)n3)cc2)cc1` [Compound 1.63, N-[2-(p-tolylmethoxy-imino)ethyl]-4-[5-(trifluoromethyl)-1,2,4-oxadiazol-3-yl]benzamide], the pest or weed control at 200 ppm in the experiment on Phakopsora pachyrhizi was not below 80%.

Take `O=C(NCC=NOCc1c(Cl)cccc1Cl)c1ccc(-c2noc(C(F)(F)F)n2)cc1` [Compound 1.84, N-[2-[(2,6-dichlorophenyl)methoxyimino]ethyl]-4-[5-(trifluoromethyl)-1,2,4-oxadiazol-3-yl]benzamide]: the pest or weed control at 200 ppm in the experiment with Phakopsora pachyrhizi is not below 80%.

With `CC(C=NOCC(F)(F)F)NC(=O)c1ccc(-c2noc(C(F)(F)F)n2)cc1` (stereo not drawn) [Compound 1.51, N-[1-methyl-2-(2,2,2-trifluoroethoxy-imino)ethyl]-4-[5-(trifluoromethyl)-1,2,4-oxadiazol-3-yl]benzamide], in the experiment with Phakopsora pachyrhizi, the pest or weed control at 200 ppm is not below 80%. Besides, the inhibition of growth at 20 ppm in experiment [1] was not below 80%.

On to `CC(C=NOCC1CC1)NC(=O)c1ccc(-c2noc(C(F)(F)F)n2)cc1` (stereo not drawn) [Compound 1.57, N-[2-(cyclopropyl-methoxyimino)-1-methyl-ethyl]-4-[5-(trifluoromethyl)-1,2,4-oxadiazol-3-yl]benzamide], for which the pest or weed control at 200 ppm in the experiment on Phakopsora pachyrhizi is not below 80%. Further, the inhibition of growth at 20 ppm in experiment [1] was not below 80%.

For `CCCCCCCCCCCCON=CCNC(=O)c1ccc(-c2noc(C(F)(F)F)n2)cc1` [Compound 1.73, N-(2-dodecoxyimino-ethyl)-4-[5-(trifluoromethyl)-1,2,4-oxadiazol-3-yl]benzamide], the pest or weed control at 200 ppm in the experiment on Phakopsora pachyrhizi was not below 80%.

As for `CC(C=NOCc1ccccc1Cl)NC(=O)c1ccc(-c2noc(C(F)(F)F)n2)cc1` (stereo not drawn) [Compound 1.22, N-[2-[(2-chlorophenyl)methoxyimino]-1-methyl-ethyl]-4-[5-(trifluoromethyl)-1,2,4-oxadiazol-3-yl]benzamide], the pest or weed control at 200 ppm in the experiment with Phakopsora pachyrhizi is not below 80%. In experiment [1], the inhibition of growth at 20 ppm was not below 80%.

For the compound `CC(C=NOCc1ccccc1F)NC(=O)c1ccc(-c2noc(C(F)(F)F)n2)cc1` (stereo not drawn) [Compound 1.24, N-[2-[(2-fluorophenyl)methoxyimino]-1-methyl-ethyl]-4-[5-(trifluoromethyl)-1,2,4-oxadiazol-3-yl]benzamide], the pest or weed control at 200 ppm in the experiment on Phakopsora pachyrhizi is not below 80%. In addition, the inhibition of growth at 20 ppm in experiment [1] is not below 80%.

As to `COc1ccc(CON=C(C)CNC(=O)c2ccc(-c3noc(C(F)(F)F)n3)cc2)cc1` [Compound 1.108, N-[2-[(4-methoxyphenyl)methoxyimino]propyl]-4-[5-(trifluoromethyl)-1,2,4-oxadiazol-3-yl]benzamide], the inhibition of growth at 20 ppm in experiment [1] was not below 80%.

For the compound `O=C(NCC=NOCc1ccc(F)cc1)c1ccc(-c2noc(C(F)(F)F)n2)cc1` [Compound 1.96, N-[2-[(4-fluorophenyl)methoxyimino]ethyl]-4-[5-(trifluoromethyl)-1,2,4-oxadiazol-3-yl]benzamide], the inhibition of growth at 20 ppm in experiment [1] is not below 80%.

`O=C(NCC=NOCc1ccc(Cl)cc1)c1ccc(-c2noc(C(F)(F)F)n2)cc1` [Compound 1.103, N-[2-[(4-chlorophenyl)methoxyimino]ethyl]-4-[5-(trifluoromethyl)-1,2,4-oxadiazol-3-yl]benzamide]: the pest or weed control at 200 ppm in experiment [2] was not below 80%.

As for `CC(C=NOCc1ccc(Cl)cc1)NC(=O)c1ccc(-c2noc(C(F)(F)F)n2)cc1` (stereo not drawn) [Compound 1.59, N-[2-[(4-chlorophenyl)methoxyimino]-1-methyl-ethyl]-4-[5-(trifluoromethyl)-1,2,4-oxadiazol-3-yl]benzamide], the pest or weed control at 200 ppm with Phakopsora pachyrhizi is not below 80%.

Regarding `CC(CNC(=O)c1ccc(-c2noc(C(F)(F)F)n2)cc1)=NOCc1ccccc1` [Compound 1.134, N-(2-benzyloxyimino-propyl)-4-[5-(trifluoromethyl)-1,2,4-oxadiazol-3-yl]benzamide], the pest or weed control at 200 ppm with Phakopsora pachyrhizi was not below 80%. Besides, in experiment [1], the inhibition of growth at 20 ppm was not below 80%.

For `CC(CNC(=O)c1ccc(-c2noc(C(F)(F)F)n2)cc1)=NOCc1ccc(F)cc1` [Compound 1.140, N-[2-[(4-fluorophenyl)methoxyimino]propyl]-4-[5-(trifluoromethyl)-1,2,4-oxadiazol-3-yl]benzamide], the inhibition of growth at 20 ppm in experiment [1] is not below 80%.
